Values joined by “and” are separate entries in the source; they are usually repeats but may differ in a detail not shown here. Identical values can stand only once.
Details: Crystal, Torsion effusion method

[Br-].[Br-].[Br-].[Lu+3] [lutetium tribromide]
Details	vapor or sublimation pressure
903 K	6.3e-05 kPa
908 K	7.9e-05 kPa
909 K	9.3e-05 kPa
910 K	6.3e-05 kPa and 9.3e-05 kPa
914 K	9.3e-05 kPa
917 K	9.3e-05 kPa
918 K	0.000141 kPa and 0.000126 kPa
919 K	0.000126 kPa
920 K	0.00011 kPa
921 K	9.3e-05 kPa and 0.00011 kPa
924 K	0.000141 kPa
926 K	0.000126 kPa and 0.000191 kPa
927 K	0.000191 kPa
929 K	0.000204 kPa
930 K	0.000158 kPa and 0.000126 kPa
931 K	0.000158 kPa
935 K	0.000191 kPa
936 K	0.000234 kPa
937 K	0.000282 kPa
938 K	0.000251 kPa and 0.000219 kPa and 0.000282 kPa
939 K	0.000282 kPa
940 K	0.000191 kPa
946 K	0.000316 kPa
947 K	0.00038 kPa
948 K	0.00038 kPa [middle of 4 runs]
950 K	0.000407 kPa and 0.000282 kPa
956 K	0.000427 kPa and 0.000437 kPa and 0.000501 kPa
957 K	0.000562 kPa
958 K	0.00049 kPa and 0.000468 kPa
960 K	0.000603 kPa and 0.000427 kPa
965 K	0.000676 kPa
966 K	0.000617 kPa and 0.000794 kPa and 0.000724 kPa
967 K	0.000661 kPa and 0.000794 kPa
968 K	0.000661 kPa
969 K	0.000794 kPa and 0.000617 kPa
973 K	0.000912 kPa
975 K	0.000813 kPa
976 K	0.001096 kPa and 0.001047 kPa
977 K	0.001072 kPa
978 K	0.000912 kPa and 0.000933 kPa
979 K	0.001096 kPa and 0.000912 kPa
981 K	0.001175 kPa
984 K	0.001445 kPa
986 K	0.001202 kPa and 0.001413 kPa and 0.001445 kPa
987 K	0.001318 kPa
988 K	0.001288 kPa
989 K	0.001514 kPa and 0.00123 kPa and 0.001585 kPa
995 K	0.00195 kPa and 0.001778 kPa
996 K	0.001585 kPa and 0.00195 kPa
997 K	0.00195 kPa and 0.001778 kPa
998 K	0.001778 kPa and 0.001622 kPa
999 K	0.002089 kPa
1004 K	0.00257 kPa and 0.002399 kPa
1006 K	0.002512 kPa and 0.002089 kPa and 0.00257 kPa
1007 K	0.002188 kPa and 0.002399 kPa
1008 K	0.002399 kPa
1009 K	0.002818 kPa
1013 K	0.003311 kPa and 0.00309 kPa
1016 K	0.003162 kPa
1017 K	0.002951 kPa and 0.003388 kPa
1018 K	0.003236 kPa and 0.00302 kPa and 0.003548 kPa
1023 K	0.004074 kPa
1026 K	0.004074 kPa
1027 K	0.003981 kPa and 0.003802 kPa and 0.005012 kPa
1028 K	0.00389 kPa
1038 K	0.007244 kPa

[Cl][Lu]([Cl])[Cl] [lutetium trichloride]
Details	vapor or sublimation pressure
942 K	6.3e-05 kPa
945 K	7.9e-05 kPa
946 K	7.9e-05 kPa
953 K	7.9e-05 kPa
955 K	0.000126 kPa
958 K	0.00011 kPa
959 K	0.000126 kPa
963 K	0.000141 kPa
968 K	0.000158 kPa
969 K	0.000191 kPa
970 K	0.000158 kPa
976 K	0.000219 kPa
978 K	0.000251 kPa
981 K	0.000251 kPa
982 K	0.000316 kPa
984 K	0.000347 kPa
991 K	0.00038 kPa and 0.000407 kPa
992 K	0.00038 kPa
998 K	0.000468 kPa and 0.00055 kPa
1001 K	0.000603 kPa
1002 K	0.000562 kPa
1004 K	0.000617 kPa and 0.000575 kPa
1005 K	0.000631 kPa
1012 K	0.000794 kPa
1013 K	0.000912 kPa
1016 K	0.000933 kPa
1017 K	0.001 kPa and 0.000912 kPa
1018 K	0.000977 kPa
1024 K	0.00123 kPa
1029 K	0.001445 kPa
1030 K	0.001445 kPa
1031 K	0.001622 kPa
1032 K	0.001622 kPa
1033 K	0.00166 kPa and 0.001778 kPa
1042 K	0.002239 kPa and 0.002188 kPa and 0.002138 kPa
1046 K	0.00263 kPa
1047 K	0.002692 kPa
1048 K	0.002818 kPa
1050 K	0.002951 kPa
1051 K	0.002951 kPa
1053 K	0.003162 kPa
1058 K	0.003631 kPa
1059 K	0.003548 kPa
1060 K	0.003715 kPa and 0.003981 kPa
1062 K	0.00389 kPa
1066 K	0.004467 kPa
1071 K	0.00537 kPa and 0.004898 kPa
1075 K	0.005495 kPa and 0.00537 kPa

[I][Lu]([I])[I] [lutetium triiodide]
Details	vapor or sublimation pressure
862 K	3e-05 kPa
875 K	6e-05 kPa
883 K	7.6e-05 kPa
888 K	8.9e-05 kPa
892 K	7.6e-05 kPa
893 K	0.000105 kPa
894 K	0.00012 kPa
895 K	0.00012 kPa
896 K	0.000151 kPa
897 K	0.00012 kPa
898 K	0.000151 kPa
899 K	0.000151 kPa
900 K	0.000105 kPa
901 K	0.00012 kPa
904 K	0.000151 kPa and 0.000182 kPa
905 K	0.000182 kPa
906 K	0.000224 kPa and 0.000166 kPa
909 K	0.000209 kPa and 0.000151 kPa and 0.000166 kPa
911 K	0.00024 kPa and 0.000195 kPa
912 K	0.000209 kPa
913 K	0.00024 kPa
915 K	0.000269 kPa
916 K	0.000302 kPa and 0.00024 kPa
917 K	0.000347 kPa
918 K	0.00024 kPa
919 K	0.000209 kPa
920 K	0.000269 kPa and 0.000288 kPa
921 K	0.000331 kPa
923 K	0.000372 kPa
924 K	0.000363 kPa
926 K	0.000269 kPa and 0.000447 kPa
927 K	0.000347 kPa
928 K	0.000513 kPa and 0.000363 kPa and 0.000389 kPa
929 K	0.000389 kPa
931 K	0.000513 kPa
932 K	0.000501 kPa
933 K	0.000575 kPa
935 K	0.000537 kPa
936 K	0.000513 kPa
937 K	0.000513 kPa
938 K	0.000724 kPa [middle of 4 runs]
940 K	0.000692 kPa
942 K	0.000759 kPa
943 K	0.000759 kPa and 0.000692 kPa
945 K	0.000692 kPa and 0.000575 kPa and 0.000724 kPa
948 K	0.001047 kPa and 0.000776 kPa
949 K	0.000933 kPa
950 K	0.001023 kPa
951 K	0.001072 kPa and 0.000891 kPa
952 K	0.001122 kPa
953 K	0.000933 kPa
954 K	0.001 kPa
955 K	0.000832 kPa
958 K	0.001413 kPa and 0.001445 kPa and 0.001148 kPa
959 K	0.001445 kPa and 0.00123 kPa
960 K	0.001514 kPa
961 K	0.001479 kPa
962 K	0.001349 kPa
963 K	0.001413 kPa
964 K	0.00123 kPa
967 K	0.00195 kPa and 0.001622 kPa
968 K	0.002239 kPa and 0.001995 kPa
969 K	0.001622 kPa
970 K	0.002138 kPa
972 K	0.001905 kPa and 0.002239 kPa and 0.00182 kPa
974 K	0.001738 kPa
975 K	0.002138 kPa
976 K	0.002951 kPa and 0.00257 kPa
977 K	0.002884 kPa and 0.002138 kPa
978 K	0.002455 kPa
979 K	0.002291 kPa and 0.002951 kPa
983 K	0.002951 kPa and 0.002399 kPa
985 K	0.003631 kPa and 0.003162 kPa and 0.003236 kPa
986 K	0.003981 kPa and 0.003715 kPa
987 K	0.00302 kPa
991 K	0.004266 kPa
993 K	0.004677 kPa and 0.00389 kPa
994 K	0.004074 kPa and 0.003388 kPa and 0.004169 kPa
995 K	0.005012 kPa and 0.003631 kPa
996 K	0.005012 kPa
1004 K	0.00631 kPa and 0.005623 kPa

[Br][Yb]([Br])[Br] [ytterbium tribromide]
Details	vapor or sublimation pressure
891 K	4.7e-05 kPa
897 K	7.9e-05 kPa and 6.3e-05 kPa
905 K	9.3e-05 kPa and 6.3e-05 kPa
906 K	0.000126 kPa
909 K	0.00011 kPa
912 K	7.9e-05 kPa
913 K	0.00011 kPa
915 K	0.000158 kPa
916 K	0.000158 kPa
920 K	0.000126 kPa
923 K	0.000158 kPa and 0.000219 kPa
924 K	0.000219 kPa
926 K	0.000219 kPa
928 K	0.000191 kPa
929 K	0.000158 kPa
932 K	0.000316 kPa
933 K	0.000316 kPa
934 K	0.000347 kPa
936 K	0.000251 kPa and 0.000219 kPa
937 K	0.000347 kPa
938 K	0.000282 kPa
940 K	0.000427 kPa
942 K	0.000437 kPa
943 K	0.000468 kPa
945 K	0.000468 kPa and 0.000331 kPa
946 K	0.000347 kPa
947 K	0.00038 kPa
948 K	0.000562 kPa
952 K	0.000631 kPa
953 K	0.000692 kPa
954 K	0.000631 kPa
955 K	0.000525 kPa
956 K	0.000537 kPa and 0.000501 kPa
958 K	0.000794 kPa
963 K	0.000851 kPa
964 K	0.000933 kPa
965 K	0.000759 kPa [middle of 4 runs]
969 K	0.001122 kPa
972 K	0.001175 kPa
973 K	0.000977 kPa and 0.001259 kPa
974 K	0.000933 kPa and 0.00138 kPa
975 K	0.000977 kPa
978 K	0.001585 kPa
979 K	0.001122 kPa
980 K	0.001585 kPa
982 K	0.001698 kPa
983 K	0.00138 kPa
984 K	0.001349 kPa
985 K	0.001995 kPa
988 K	0.002042 kPa
990 K	0.002188 kPa
991 K	0.001622 kPa
992 K	0.001905 kPa
993 K	0.00257 kPa
994 K	0.001905 kPa
995 K	0.002754 kPa
997 K	0.002692 kPa
1000 K	0.002399 kPa
1002 K	0.002512 kPa
1003 K	0.003631 kPa
1006 K	0.003467 kPa
1008 K	0.004169 kPa
1009 K	0.003162 kPa
1012 K	0.003388 kPa
1013 K	0.004677 kPa
1018 K	0.003981 kPa
1021 K	0.004365 kPa and 0.00631 kPa
1022 K	0.006457 kPa
1026 K	0.005012 kPa
1032 K	0.005754 kPa

— the NIST ThermoML archive (doi:10.1021/je049579x)
